Results on two compounds are retold here after patent US20220324808A1, “Co-crystal of Compound I Dihydrochloride and Preparation Method and Use Thereof” (CRYSTAL PHARMACEUTICAL (SUZHOU) CO., LTD., priority 2020, published 2022).

Where two headings read alike, the source gives them in different places.

A short description of series [1]: Storage stability of drug substance (crystalline form by XRPD, chemical impurity by HPLC). In kind it is physicochemical.
Excerpt: (§1) Crystalline form and chemical impurity were checked by XRPD and HPLC, respectively.
as §1

Series [2] in a line: Humidity stability by DVS. The following applies: humidity range 0-95% RH, XRPD before and after. The format is physicochemical. How it is done:
Dynamic Vapor Sorption (DVS) was measured via an SMS (Surface Measurement Systems Ltd.) intrinsic DVS instrument. Typical Parameters for DVS test are as follows:
Gas and flow rate: nitrogen, 200 mL/min
Rate of mass change: 0.002%/min
RH range: 0% RH to 95% RH
DVS was applied to test the stability of Form CSI under different humidity with about 10 mg of samples. The weight change at each relative humidity were recorded in a humidity range of 0-95% RH.
DVS was applied to test the stability of Form CSIII under different humidity with about 10 mg of samples. The weight change at each relative humidity were recorded in a humidity range of 0-95% RH.

Series [3] is described as follows: Mechanical stability: manual grinding, XRPD before and after. The format is physicochemical. The following applies: ground manually for 5 minutes in mortar. How it is done: Solid sample of prior art Form A, Form CSI and Form CSIII of the present disclosure were separately grounded manually for 5 minutes in mortars. The XRPD patterns overlay before and after grinding is shown in FIG. 14, FIG. 15 and FIG. 16.

The nature of series [4]: Mechanical stability: tableting under different pressure, XRPD. The format is physicochemical. The conditions noted are these: 5 kN, 10 kN, 20 kN pressure. The text has this: A certain amount of Form CSI and Form CSIII were compressed into tablets under 5 kN, 10 kN, 20 kN pressure with suitable tableting die. Crystalline form before and after tableting were checked by XRPD.

The nature of series [5]: Adhesiveness (material sticking to the punch). In kind it is physicochemical. The conditions noted are these: 30 mg, φ8 mm round tooling, 10 KN; for Maximum amount (mg) of material sticking to the punch: held 30 s. How it is done:
30 mg of Form CSI, Form CSIII and prior art Form A were weighed and then added into the dies of φ8 mm round tooling, compressed at 10 KN and held for 30 s. The punch was weighed and the amount of material sticking to the punch was calculated. The compression was repeated twice and the maximum amount of material sticking to the punch during the compression were recorded.

A short description of series [6]: Crystalline form before and after formulation process (XRPD). The format is physicochemical. The following applies: dry granulation and tableting. The text has this: The formulation and preparation process of Form CSI and Form CSIII are shown in Table 16 and Table 17, respectively.
Series [7] is described as follows: Compressibility (manual tablet press, tensile strength). In kind it is physicochemical. The conditions noted are these: 10 KN. How it is done:
A manual tablet press was used for compression. 60 mg of Form CSIII and prior art Form A were weighed and added into the dies of a φ6 mm round tooling, compressed at 10 KN manually, then stored at room temperature for 24 h until complete elastic recovery, diameter (D) and thickness (L) were tested with a caliper. Hardness (H) was tested with an intelligent tablet hardness tester. Tensile strength of the powder was calculated with the following formula: T=2H/πDL. Under a certain force, the greater the tensile strength, the better the compressibility.

For series [8] the following is noted: cited from earlier work; for crystalline form conversion at low humidity: under 5% RH.
The conditions of series [9]: heated to 75-100° C.; WO2014152270A1; cited from earlier work.
Where [10] appears, read: 25° C./60% RH (sealed), 6 Months.
The mark [11] stands for this setting: 40° C./75% RH (sealed), 6 Months.
The mark [12] stands for this setting: 60° C./75% RH (sealed), 1 Month.
The mark [13] stands for this setting: 60 mg, φ6 mm round tooling, after 24 h.

As to `COC(=O)N1CCN(Cc2cccc(NC(=O)Nc3ccc(C)nc3)c2F)CC1.COC(=O)N1CCN(Cc2cccc(NC(=O)Nc3ccc(C)nc3)c2F)CC1.Cl.Cl.Cl.Cl.O=C(O)/C=C/C(=O)O` [Form CSI], the “Purity (%)” value was 99.66% in [1] (25° C./60% RH (open), 6 Months); 99.65% in [1] (setting [10]); 99.65% in [1] (40° C./75% RH (open), 6 Months); 99.64% in series [1] (setting [11]); 99.70% in [1] (setting [12]); 99.71% in series [1] (Initial). Moreover, the “Solid Form” value in series [1] (25° C./60% RH (open), 6 Months) is reported as “Form CSI”; in series [1] (setting [10]) it was “Form CSI”; in series [1] (40° C./75% RH (open), 6 Months), “Form CSI”; in series [1] (setting [11]), “Form CSI”; in [1] (setting [12]), “Form CSI”; in series [1] (Initial) it was “Form CSI”. In addition, the “storage stability (in words)” value in series [1] (25° C./60% RH and 40° C./75% RH) is recorded as “stable for at least six months”; in series [1] (60° C./75% RH) it was “stable for at least one month”. The “crystalline state after DVS test” value in series [2] is “remains unchanged”. Moreover, the “crystal form and crystallinity after grinding” value in [3] was “no crystal transformation and the crystallinity almost has no change after grinding”. In addition, the “crystalline form after tableting” value in [4] is “no crystal transformation after tableting under different pressure”. Further, the “maximum amount relative to that of the prior art Form A” value in series [5] is given as “less than ⅕”. For the same compound, the “Maximum amount (mg) of material sticking to the punch” value in series [5] is given as 0.48 mg. Moreover, in series [6], the “crystalline form before and after the formulation process” value is “remain stable before and after the formulation process”.
With `COC(=O)N1CCN(Cc2cccc(NC(=O)Nc3ccc(C)nc3)c2F)CC1.Cl.Cl.O` [Form A], in series [7] (setting [13]), the “Diameter (mm)” value came to 6.00 mm, the “Hardness (kgf)” value turned out to be 3.38 kgf and the “Thickness (mm)” value was 1.67 mm. In addition, in series [7] (T=2H/πDL), the “Tensile strength (MPa)” value is 2.11 MPa. For the same compound, in series [3], the “crystal form and crystallinity after grinding” value is given as “crystallinity of prior art Form A decreases after grinding”. In addition, the “Maximum amount (mg) of material sticking to the punch” value in series [5] was found to be 2.83 mg. Further, the weight loss entry in series [8] (DVS, between about 30% RH and about 5% RH, WO2014152270A1) is “about 2.7 wt %”. In [8] (DVS, between about 40% RH and about 95% RH, WO2014152270A1), the total weight gain result is “about 0.55 wt %”. Moreover, the “crystalline form conversion at low humidity” value in [8] was “converted to dehydrated state Form C”. In series [8] (listed as prior art Form A), the “crystalline form conversion at low humidity” value is “converted to Form C”. Moreover, the “crystalline form conversion on heating” value in series [9] is recorded as “converts to Form B”.
